Measurements from US20250222146A1, “Radiopharmaceuticals Targeting Somatostatin Receptor 2 and Uses Thereof” (RayzeBio, Inc., priority 2023, published 2025).
Like-named read-outs stand apart in the source and are kept apart here. Numbered stars: 1 amine (or outer) side, 2 acyl side, 3 side chain; on linkers, the order of the positions; unused ones are H or OH. Square brackets hold non-standard residues; d marks the D form. Side chains are listed from the residue outwards. Peptide text beside a SMILES is read from it. * marks the point of attachment. X9 = O=C1CN2CCN3CCN(CC(=O)N4CC(C(=O)*)C4)CCN(CC2)CC(=O)[O][Lu]([O]1)[O]C(=O)C3; DOTA(Lu) = O=C1CN2CCN3CCN(CC(=O)*)CCN(CC2)CC(=O)[O][Lu]([O]1)[O]C(=O)C3; Ala(piperidin-4-yl) = O=C([C@H](CC1CCN([*:3])CC1)N[*:1])[*:2]; dTrp(βS-Me) = C[C@@H](c1c[nH]c2ccccc12)[C@@H](N)C(=O)O; Ala(piperazin-1-yl) = N[C@@H](CN1CCNCC1)C(=O)O; NMehLys = CN[C@@H](CCCCCN)C(=O)O; Trx = NC[C@H]1CC[C@H](C(=O)O)CC1; NMeK = CN[C@@H](CCCCN)C(=O)O; Inp = O=C(O)C1CCNCC1; Ava = NCCCCC(=O)O; GABA = NCCCC(=O)O

Experiments:
SSTR2 = SSTR2 (Homo sapiens, UniProt P30874); assay: SSTR binding affinity by radioligand binding competition assay ([125I]-Tyr11-Somatostatin, membrane extracts); conditions: radioligand competition, [125I]-Tyr11-Somatostatin 0.1 nM, membrane extracts, Ki from IC50 by Cheng Prusoff
SSTR2, sequence (P30874 whole entry): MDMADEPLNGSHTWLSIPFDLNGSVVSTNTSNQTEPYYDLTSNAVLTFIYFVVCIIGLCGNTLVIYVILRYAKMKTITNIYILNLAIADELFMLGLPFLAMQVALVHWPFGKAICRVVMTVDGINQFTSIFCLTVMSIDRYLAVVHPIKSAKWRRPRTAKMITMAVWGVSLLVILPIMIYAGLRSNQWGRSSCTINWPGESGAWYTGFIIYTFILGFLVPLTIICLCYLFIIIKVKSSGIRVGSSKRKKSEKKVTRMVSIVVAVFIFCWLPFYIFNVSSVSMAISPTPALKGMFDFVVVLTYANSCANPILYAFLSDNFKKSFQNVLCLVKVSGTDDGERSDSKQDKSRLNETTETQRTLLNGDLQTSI

[1] = Peptide conjugate biodistribution measured by tissue PK (ICP-MS, % ID/g in kidney tissue at 2 h); type: in vivo; conditions: 2 h time point, mouse
Protocol: Macrocyclic peptides and conjugates described herein were tested for tissue distribution by measuring concentrations in tissues by MS using in vivo animal models. Peptide metal chelates were dosed to animals and tissues were collected at specific time points based off the peptide PK profile. The samples were then analyzed by MS and the results reported as % ID/g (% injected dose/gram). Radiopharmaceutical conjugates of the present disclosure have improved tissue distribution for radiopharmaceutical therapeutics.
Peptide metal chelate doses were suspended in phosphate-buffered saline (PBS) containing 0.1% Tween 80. An injection volume of 100 μL per mouse was used, and blood and tissue samples were collected, weighed, and stored frozen at-80° C. until analysis. Tissue samples were digested with concentrated nitric acid in a microwave digestion apparatus. The sample digest was diluted with internal standard and analyzed using inductively coupled plasma mass spectrometry (ICP-MS). ICP-MS is an elemental analysis technique used to measure elements by using argon plasma to convert the sample into ions that are then measured using the mass spectrometer. Calibration standards were used for quantification of element(s) of interest by constructing a multipoint standard curve covering the range of analyte concentrations anticipated in the samples (typical range is 500 ppt to 0.1 ppt). A single quadrupole instrument (iCAP RQ, Thermo Fisher) ICP-MS was coupled with a Teledyne CETAC autosampler and used for the sample analysis.
The % ID/g of conjugate in kidney tissue at the 2-hour time point (2 h) was quantified for various conjugates, and the results are shown in Table 10. Lower kidney tissue % ID/g values indicate lower distribution to the kidney after administration of the conjugate.

| Compound | Ki (SSTR2; SSTR2 Ki) [nM] | tissue uptake at 2 h [1] [%ID/g] | Ki (SSTR2; read-out: SSTR2 Ki) [nM] |
| --- | --- | --- | --- |
| C[C@@H](O)[C@@H]1NC(=O)[C@H](CCCCN)NC(=O)[C@@H](Cc2c[nH]c3ccccc23)NC(=O)[C@H](Cc2ccc(O)cc2)NC(=O)[C@H](CCSCC(=O)NCCCCCCNC(=O)CN2CCN3CCN4CCN(CC2)CC(=O)[O][Lu]([O]C(=O)C3)[O]C(=O)C4)N(C)C(=O)[C@H](Cc2ccccc2)NC1=O [RB-0003149] | < 1 | 8.4 | – |
| C[C@@H](O)[C@@H]1NC(=O)[C@H](CC2CCNCC2)NC(=O)[C@@H]([C@@H](C)c2c[nH]c3ccccc23)NC(=O)[C@H](Cc2ccc(O)cc2)NC(=O)[C@H](CCCCNC(=O)CN2CCN3CCN4CCN(CC2)CC(=O)[O][Lu]([O]C(=O)C3)[O]C(=O)C4)N(C)C(=O)[C@H](Cc2ccccc2)NC1=O [RB-0006176] (cyclo(F[NMeK](DOTA(Lu))Y[dTrp(βS-Me)][Ala(piperidin-4-yl)]T)) | – | 1.6 | – |
| C[C@@H](O)[C@@H]1NC(=O)[C@H](CC2CCNCC2)NC(=O)[C@@H]([C@@H](C)c2c[nH]c3ccccc23)NC(=O)[C@H](Cc2ccc(O)cc2)NC(=O)[C@H](CCCCNC(=O)CCCNC(=O)CN2CCN3CCN4CCN(CC2)CC(=O)[O][Lu]([O]C(=O)C3)[O]C(=O)C4)N(C)C(=O)[C@H](Cc2ccccc2)NC1=O [RB-0006403] (cyclo(F[NMeK]([GABA-DOTA(Lu)])Y[dTrp(βS-Me)][Ala(piperidin-4-yl)]T)) | – | – | 1 to 3.33 |
| C[C@@H](O)[C@@H]1NC(=O)[C@H](CC2CCNCC2)NC(=O)[C@@H]([C@@H](C)c2c[nH]c3ccccc23)NC(=O)[C@H](Cc2ccc(O)cc2)NC(=O)[C@H](CCCCNC(=O)CCCCNC(=O)CN2CCN3CCN4CCN(CC2)CC(=O)[O][Lu]([O]C(=O)C3)[O]C(=O)C4)N(C)C(=O)[C@H](Cc2ccccc2)NC1=O [RB-0006406] (cyclo(F[NMeK]([Ava-DOTA(Lu)])Y[dTrp(βS-Me)][Ala(piperidin-4-yl)]T)) | – | – | 1 to 3.33 |
| C[C@@H](O)[C@@H]1NC(=O)[C@H](CN2CCNCC2)NC(=O)[C@@H]([C@@H](C)c2c[nH]c3ccccc23)NC(=O)[C@H](Cc2ccc(O)cc2)NC(=O)[C@H](CCCCNC(=O)CC[C@@H]2C(=O)[O][Ga]3[O]C(=O)CN4CCN(CCN2CC4)CC(=O)[O]3)N(C)C(=O)[C@H](Cc2ccccc2)NC1=O [RB-0006414] | – | – | 1 to 3.33 |
| C[C@@H](O)[C@@H]1NC(=O)[C@H](CN2CCNCC2)NC(=O)[C@@H]([C@@H](C)c2c[nH]c3ccccc23)NC(=O)[C@H](Cc2ccc(O)cc2)NC(=O)[C@H](CCCCNC(=O)[C@H]2CC[C@H](CNC(=O)CN3CCN4CCN5CCN(CC3)CC(=O)[O][Lu]([O]C(=O)C4)[O]C(=O)C5)CC2)N(C)C(=O)[C@H](Cc2ccccc2)NC1=O [RB-0006420] (cyclo(F[NMeK]([Trx-DOTA(Lu)])Y[dTrp(βS-Me)][Ala(piperazin-1-yl)]T)) | – | – | 1 to 3.33 |
| C[C@@H](O)[C@@H]1NC(=O)[C@H](CC2CCNCC2)NC(=O)[C@@H]([C@@H](C)c2c[nH]c3ccccc23)NC(=O)[C@H](Cc2ccc(O)cc2)NC(=O)[C@H](CCCCCNC(=O)CN2CCN3CCN4CCN(CC2)CC(=O)[O][Lu]([O]C(=O)C3)[O]C(=O)C4)N(C)C(=O)[C@H](Cc2ccccc2)NC1=O [RB-0006449] (cyclo(F[NMehLys](DOTA(Lu))Y[dTrp(βS-Me)][Ala(piperidin-4-yl)]T)) | – | – | < 1 |
| C[C@@H](O)[C@@H]1NC(=O)[C@H](CC2CCNCC2)NC(=O)[C@@H]([C@@H](C)c2c[nH]c3ccccc23)NC(=O)[C@H](Cc2ccc(O)cc2)NC(=O)[C@H](CCCCNC(=O)C2CCN(C(=O)CN3CCN4CCN5CCN(CC3)CC(=O)[O][Lu]([O]C(=O)C5)[O]C(=O)C4)CC2)N(C)C(=O)[C@H](Cc2ccccc2)NC1=O [RB-0006452] (cyclo(F[NMeK]([Inp-DOTA(Lu)])Y[dTrp(βS-Me)][Ala(piperidin-4-yl)]T)) | – | – | 1 to 3.33 |
| C[C@@H](O)[C@@H]1NC(=O)[C@H](CC2CCNCC2)NC(=O)[C@@H]([C@@H](C)c2c[nH]c3ccccc23)NC(=O)[C@H](Cc2ccc(O)cc2)NC(=O)[C@H](CCCCNC(=O)C2CN(C(=O)CN3CCN4CCN5CCN(CC3)CC(=O)[O][Lu]([O]C(=O)C5)[O]C(=O)C4)C2)N(C)C(=O)[C@H](Cc2ccccc2)NC1=O [RB-0006455] (cyclo(F[NMeK](X9)Y[dTrp(βS-Me)][Ala(piperidin-4-yl)]T)) | – | – | 1 to 3.33 |
